Values joined by “and” are separate entries in the source; they are usually repeats but may differ in a detail not shown here. Identical values can stand only once.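 Where inhibition never reached the appropriate level, the endpoint shown equals the highest concentration tested. Otherwise, values were interpolated linearly from a five-concentration, 48-hour dose response in 96-well plates. GI50 marks 50% less growth. The concentration for full growth arrest is given as TGI.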 A value given as a limit tells only on which side of the number the result lay.

Test systems include SF-268 CNS; A498 renal; SNB-19 CNS; DU-145 prostate; HS 578T breast; UO-31 renal; TK-10 renal; CCRF-CEM leukemia; K-562 leukemia; MDA-MB-231 breast.
Common to all, as to experiment: NCI-60 cell line screen, 48 h

With `Cc1c(N=Nc2ccc([N+](=O)[O-])cc2)nc2scc(-c3ccccc3)n12`, the TGI with SF-268 CNS, with A498 renal, in the experiment on SNB-19 CNS, with DU-145 prostate, in the experiment on HS 578T breast and with UO-31 renal was > 100 µM throughout. In addition, the TGI with TK-10 renal was > 100 µM; with CCRF-CEM leukemia it was > 73.4 µM; in the experiment with K-562 leukemia, > 100 µM; in the experiment with MDA-MB-231 breast, > 100 µM.
Turning to `Nc1ccccc1C#C/C=C\C#Cc1ccccc1C(F)(F)F`, the GI50 is 1.67 µM with SF-268 CNS; 2.55 µM in the experiment on A498 renal; 10.5 µM in the experiment on SNB-19 CNS; 2.7 µM with DU-145 prostate; 1.26 µM in the experiment with HS 578T breast; 4.08 µM in the experiment with UO-31 renal. Further, the GI50 with TK-10 renal is 8.3 µM; in the experiment with CCRF-CEM leukemia, 17.7 µM; in the experiment on K-562 leukemia, 1.07 µM; with MDA-MB-231 breast, 0.274 µM. The TGI was found to be 20.4 µM in the experiment with SF-268 CNS; 16.9 µM with A498 renal; 58.7 µM with SNB-19 CNS; 14.7 µM with DU-145 prostate; 25.2 µM in the experiment on HS 578T breast; 23.4 µM in the experiment on UO-31 renal. For the same compound, the TGI in the experiment on TK-10 renal is 27.9 µM; with CCRF-CEM leukemia it was > 100 µM; with K-562 leukemia, 3.74 µM; in the experiment with MDA-MB-231 breast, 2.73 µM.
Turning to `CC[C@]1(O)CC2CN(CCc3c([nH]c4ccccc34)[C@@](C(=O)OC)(c3cc4c(cc3OC)N(C)[C@H]3[C@@](O)(C(=O)OC)[C@H](OC(C)=O)[C@]5(CC)C=CCN6CC[C@]43[C@@H]65)C2)C1` (stereo not given in full), the GI50 in the experiment with SF-268 CNS was < 0.005 µM; in the experiment with A498 renal it was 0.00547 µM; in the experiment on SNB-19 CNS, < 0.005 µM; with DU-145 prostate, < 0.005 µM; in the experiment on HS 578T breast, < 0.005 µM; in the experiment on UO-31 renal it was 0.511 µM. The GI50 in the experiment on TK-10 renal was 0.148 µM; in the experiment on CCRF-CEM leukemia, < 0.005 µM; in the experiment with K-562 leukemia, < 0.005 µM; with MDA-MB-231 breast, < 0.005 µM. Besides, the TGI came out at 8.08 µM with SF-268 CNS; 0.0994 µM in the experiment on A498 renal; 15.6 µM with SNB-19 CNS; 0.0282 µM in the experiment with DU-145 prostate; 10.2 µM in the experiment with HS 578T breast; 15.9 µM in the experiment on UO-31 renal. Also, the TGI stood at 13.9 µM with TK-10 renal, 18.5 µM with CCRF-CEM leukemia, 2.26 µM with K-562 leukemia and 0.417 µM with MDA-MB-231 breast.
As for `O=c1cc(C(F)(F)F)c2cc3c(cc2o1)NCCC3`, the TGI is > 100 µM with SF-268 CNS; > 100 µM in the experiment with A498 renal; 91.7 µM in the experiment on SNB-19 CNS; > 100 µM in the experiment with DU-145 prostate; 61.9 µM in the experiment with HS 578T breast; > 100 µM in the experiment on UO-31 renal. The TGI with TK-10 renal, with CCRF-CEM leukemia, in the experiment on K-562 leukemia and with MDA-MB-231 breast was > 100 µM throughout.
On to `CCCC[C@H]1C(=O)O[C@H](C)[C@H](NC(=O)c2cccc(NC=O)c2O)C(=O)O[C@@H](C)[C@@H]1OC(=O)CC(C)C`, for which the TGI was 35.5 µM in the experiment with SF-268 CNS; 30 µM in the experiment on A498 renal; 63.1 µM in the experiment with SNB-19 CNS; 40.7 µM in the experiment on DU-145 prostate; 37.7 µM in the experiment with HS 578T breast; 33.2 µM in the experiment on UO-31 renal. Further, the TGI is 50.6 µM in the experiment with TK-10 renal, 6.29 µM in the experiment on CCRF-CEM leukemia, 57.7 µM with K-562 leukemia and 32.8 µM in the experiment on MDA-MB-231 breast.
On to `O=C(/C=C/c1ccc(OCC(=O)N2CCN(c3ccccc3)CC2)cc1)c1ccc(Cl)cc1`, for which the TGI is > 92.7 µM in the experiment with SF-268 CNS; 60.3 µM with A498 renal; 50.7 µM with SNB-19 CNS; > 100 µM with DU-145 prostate; 62.3 µM in the experiment with HS 578T breast; > 97.2 µM in the experiment with UO-31 renal. Also, the TGI in the experiment on TK-10 renal was > 90.6 µM; in the experiment on CCRF-CEM leukemia it was > 100 µM; with K-562 leukemia it was > 100 µM; with MDA-MB-231 breast, > 86.3 µM.
Regarding `O=C(/C=C/c1cccnc1)NCCCCC1CCN(C(=O)c2ccccc2)CC1`, the GI50 in the experiment with SF-268 CNS was > 100 µM; in the experiment with A498 renal, > 100 µM and 14.5 µM; in the experiment with SNB-19 CNS it was 0.615 µM and 4.43 µM; in the experiment on DU-145 prostate it was 0.0234 µM and < 0.0315 µM; with HS 578T breast, > 100 µM; in the experiment on UO-31 renal, > 100 µM. Further, the GI50 with TK-10 renal was > 100 µM; in the experiment on CCRF-CEM leukemia, < 0.01 µM; in the experiment with K-562 leukemia, < 0.01 µM; in the experiment on MDA-MB-231 breast it was > 100 µM. The TGI was > 100 µM in the experiment with SF-268 CNS; > 100 µM and 97.8 µM with A498 renal; > 100 µM in the experiment on SNB-19 CNS; > 100 µM in the experiment with DU-145 prostate; > 100 µM with HS 578T breast; > 100 µM with UO-31 renal. In addition, the TGI in the experiment on TK-10 renal, in the experiment with CCRF-CEM leukemia, in the experiment with K-562 leukemia and with MDA-MB-231 breast was > 100 µM each time.
Turning to `COc1ccc(/C=C/C(=O)c2cc3c(N)c(C(=O)Nc4ccccc4Cl)sc3nc2C)cc1`, the GI50 in the experiment on SF-268 CNS was 3.39 µM; in the experiment on A498 renal, 0.866 µM; in the experiment on SNB-19 CNS it was 3.8 µM; with DU-145 prostate, 2.78 µM; in the experiment on HS 578T breast it was 0.937 µM; with UO-31 renal, 1.17 µM. Further, the GI50 in the experiment with TK-10 renal was 2.64 µM; in the experiment with CCRF-CEM leukemia, 10.4 µM; in the experiment with K-562 leukemia, 2.49 µM; in the experiment with MDA-MB-231 breast, 2.22 µM. The TGI in the experiment with SF-268 CNS was 27.9 µM; with A498 renal it was 4.51 µM; in the experiment on SNB-19 CNS, 23.1 µM; in the experiment on DU-145 prostate it was > 50 µM; in the experiment with HS 578T breast, 4.56 µM; with UO-31 renal it was 3.94 µM. Moreover, the TGI with TK-10 renal is 30.5 µM; in the experiment with CCRF-CEM leukemia, > 50 µM; with K-562 leukemia it was > 50 µM; in the experiment on MDA-MB-231 breast it was 20.3 µM.
As to `OCc1cn(Cc2cccc(Cl)c2)c2ccccc12`, the GI50 in the experiment on SF-268 CNS is 14 µM; in the experiment with A498 renal it was 0.0142 µM; in the experiment with SNB-19 CNS it was 22.5 µM; with DU-145 prostate, 11.6 µM; in the experiment with HS 578T breast, 9.27 µM; in the experiment on UO-31 renal, 5.01 µM. The GI50 in the experiment with TK-10 renal was < 0.0145 µM; in the experiment on CCRF-CEM leukemia, 11 µM; in the experiment with K-562 leukemia, 1.99 µM; in the experiment with MDA-MB-231 breast, 8.37 µM. For the same compound, the TGI with SF-268 CNS was 38.1 µM; in the experiment on A498 renal, 0.0305 µM; with SNB-19 CNS, > 96.5 µM; in the experiment with DU-145 prostate, 47.8 µM; in the experiment with HS 578T breast, 33.7 µM; in the experiment with UO-31 renal, 41.4 µM. The TGI with TK-10 renal was 0.21 µM; in the experiment on CCRF-CEM leukemia it was > 69.8 µM; with K-562 leukemia, 31.9 µM; in the experiment on MDA-MB-231 breast, 31.7 µM.

Source of the values: PubChem BioAssay (NCI).
